Measurements reported in patent US12077503B2, “Substituted cyclic amides and their use as herbicides” (FMC CORPORATION, priority 2015, dated 2024).

Experiments:
Assay type in all cases: in vivo
[1] = system: ivy-leaved morning glory (Ipomoea hederacea); assay: Test G Post-Emergence Protocol; conditions: Ipomoea, post-emergence, 312 h, read-out: Morningglory, Ivy-leaved damage rating; for pest or weed control at 15.625 g/ha: 15.625 g ai/ha, evaluated after 13 days (100=total damage to plant; 0=no damage to plant); for pest or weed control at 62.5 g/ha: 62.5 g ai/ha; for pest or weed control at 62.5 g/ha / pest or weed control at 250 g/ha: evaluated after 13 days, 100=total damage to plant, 0=no damage to plant; for pest or weed control at 250 g/ha: 250 g ai/ha
Outline: (§1)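 A glasshouse post-emergence test: 8-day-old plants sprayed at 15.625, 62.5 or 250 g/ha, then grown at 24/16 °C day/night with 14 h light and 65% humidity. Damage rated 13 days later, 0–100.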

[2] = system: giant foxtail (Setaria faberi); assay: Test G Post-Emergence Protocol; conditions: Setaria faberi, post-emergence, 312 h, read-out: Foxtail, Giant damage rating; for pest or weed control at 15.625 g/ha: 15.625 g ai/ha, evaluated after 13 days (100=total damage to plant; 0=no damage to plant); for pest or weed control at 62.5 g/ha: 62.5 g ai/ha; for pest or weed control at 62.5 g/ha / pest or weed control at 250 g/ha: evaluated after 13 days, 100=total damage to plant, 0=no damage to plant; for pest or weed control at 250 g/ha: 250 g ai/ha
Outline: as §1

corn (Zea mays) [3] = assay: Test G Post-Emergence Protocol; conditions: Zea mays, post-emergence, 312 h, read-out: Corn damage rating; for plant injury at 15.625 g/ha: 15.625 g ai/ha, evaluated after 13 days (100=total damage to plant; 0=no damage to plant); for plant injury at 62.5 g/ha: 62.5 g ai/ha; for plant injury at 62.5 g/ha / plant injury at 250 g/ha: evaluated after 13 days, 100=total damage to plant, 0=no damage to plant; for plant injury at 250 g/ha: 250 g ai/ha
Outline: as §1

[4] = system: redroot pigweed (Amaranthus retroflexus); assay: Test G Post-Emergence Protocol; conditions: Amaranthus retroflexus, post-emergence, 312 h, read-out: Pigweed, Redroot damage rating; for pest or weed control at 15.625 g/ha: 15.625 g ai/ha, evaluated after 13 days (100=total damage to plant; 0=no damage to plant); for pest or weed control at 62.5 g/ha: 62.5 g ai/ha; for pest or weed control at 62.5 g/ha / pest or weed control at 250 g/ha: evaluated after 13 days, 100=total damage to plant, 0=no damage to plant; for pest or weed control at 250 g/ha: 250 g ai/ha
Outline: as §1

[5] = system: velvetleaf (Abutilon theophrasti); assay: Test G Post-Emergence Protocol; conditions: Abutilon theophrasti, post-emergence, 312 h, read-out: Velvetleaf damage rating; for pest or weed control at 15.625 g/ha: 15.625 g ai/ha, evaluated after 13 days (100=total damage to plant; 0=no damage to plant); for pest or weed control at 62.5 g/ha: 62.5 g ai/ha; for pest or weed control at 62.5 g/ha / pest or weed control at 250 g/ha: evaluated after 13 days, 100=total damage to plant, 0=no damage to plant; for pest or weed control at 250 g/ha: 250 g ai/ha
Outline: as §1

[6] = system: barnyardgrass (Echinochloa crus-galli); assay: Test G Post-Emergence Protocol; conditions: Echinochloa crus-galli, post-emergence, 312 h, read-out: Barnyardgrass damage rating; for pest or weed control at 15.625 g/ha: 15.625 g ai/ha, evaluated after 13 days (100=total damage to plant; 0=no damage to plant); for pest or weed control at 62.5 g/ha: 62.5 g ai/ha; for pest or weed control at 62.5 g/ha / pest or weed control at 250 g/ha: evaluated after 13 days, 100=total damage to plant, 0=no damage to plant; for pest or weed control at 250 g/ha: 250 g ai/ha
Outline: as §1

[7] = system: ivy-leaved morning glory (Ipomoea hederacea); assay: Test G Pre-Emergence Protocol; conditions: Ipomoea, pre-emergence, 312 h, evaluated after 13 days; for pest or weed control at 15.625 g/ha: 15.625 g ai/ha; for pest or weed control at 15.625 g/ha / pest or weed control at 250 g/ha: read-out: Morningglory, Ivy-leaved damage rating (100=total damage to plant; 0=no damage to plant); for pest or weed control at 62.5 g/ha: 62.5 g ai/ha, 100=total damage to plant, 0=no damage to plant, read-out: Morningglory, Ivy-leaved damage rating; for pest or weed control at 250 g/ha: 250 g ai/ha
Outline: (§2)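 Pre-emergence spray, 15.625/62.5/250 g/ha, vehicle acetone:water 50:50 + 0.5% Tween 20, applied 1 d after sowing. Glasshouse 24/16° C, 14 h light, 65% RH, watered twice daily. Visual damage rating at 13 d, 0–100 scale.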

[8] = system: giant foxtail (Setaria faberi); assay: Test G Pre-Emergence Protocol; conditions: Setaria faberi, pre-emergence, 312 h, evaluated after 13 days; for pest or weed control at 15.625 g/ha: 15.625 g ai/ha; for pest or weed control at 15.625 g/ha / pest or weed control at 250 g/ha: read-out: Foxtail, Giant damage rating (100=total damage to plant; 0=no damage to plant); for pest or weed control at 62.5 g/ha: 62.5 g ai/ha, 100=total damage to plant, 0=no damage to plant, read-out: Foxtail, Giant damage rating; for pest or weed control at 250 g/ha: 250 g ai/ha
Outline: as §2

corn (Zea mays) [9] = assay: Test G Pre-Emergence Protocol; conditions: Zea mays, pre-emergence, 312 h, evaluated after 13 days; for plant injury at 15.625 g/ha: 15.625 g ai/ha; for plant injury at 15.625 g/ha / plant injury at 250 g/ha: read-out: Corn damage rating (100=total damage to plant; 0=no damage to plant); for plant injury at 62.5 g/ha: 62.5 g ai/ha, 100=total damage to plant, 0=no damage to plant, read-out: Corn damage rating; for plant injury at 250 g/ha: 250 g ai/ha
Outline: as §2

[10] = system: redroot pigweed (Amaranthus retroflexus); assay: Test G Pre-Emergence Protocol; conditions: Amaranthus retroflexus, pre-emergence, 312 h, evaluated after 13 days; for pest or weed control at 15.625 g/ha: 15.625 g ai/ha; for pest or weed control at 15.625 g/ha / pest or weed control at 250 g/ha: read-out: Pigweed, Redroot damage rating (100=total damage to plant; 0=no damage to plant); for pest or weed control at 62.5 g/ha: 62.5 g ai/ha, 100=total damage to plant, 0=no damage to plant, read-out: Pigweed, Redroot damage rating; for pest or weed control at 250 g/ha: 250 g ai/ha
Outline: as §2

[11] = system: velvetleaf (Abutilon theophrasti); assay: Test G Pre-Emergence Protocol; conditions: Abutilon theophrasti, pre-emergence, 312 h, evaluated after 13 days; for pest or weed control at 15.625 g/ha: 15.625 g ai/ha; for pest or weed control at 15.625 g/ha / pest or weed control at 250 g/ha: read-out: Velvetleaf damage rating (100=total damage to plant; 0=no damage to plant); for pest or weed control at 62.5 g/ha: 62.5 g ai/ha, 100=total damage to plant, 0=no damage to plant, read-out: Velvetleaf damage rating; for pest or weed control at 250 g/ha: 250 g ai/ha
Outline: as §2

[12] = system: barnyardgrass (Echinochloa crus-galli); assay: Test G Pre-Emergence Protocol; conditions: Echinochloa crus-galli, pre-emergence, 312 h, evaluated after 13 days; for pest or weed control at 15.625 g/ha: 15.625 g ai/ha; for pest or weed control at 15.625 g/ha / pest or weed control at 250 g/ha: read-out: Barnyardgrass damage rating (100=total damage to plant; 0=no damage to plant); for pest or weed control at 62.5 g/ha: 62.5 g ai/ha, 100=total damage to plant, 0=no damage to plant, read-out: Barnyardgrass damage rating; for pest or weed control at 250 g/ha: 250 g ai/ha
Outline: as §2

Compound | pest or weed control at 15.625 g/ha [1] [%] | pest or weed control at 62.5 g/ha [1] [%] | pest or weed control at 250 g/ha [1] [%] | pest or weed control at 15.625 g/ha [2] [%] | pest or weed control at 62.5 g/ha [2] [%] | pest or weed control at 250 g/ha [2] [%] | plant injury at 15.625 g/ha (corn (Zea mays) [3]) [%] | plant injury at 62.5 g/ha (corn (Zea mays) [3]) [%] | plant injury at 250 g/ha (corn (Zea mays) [3]) [%] | pest or weed control at 15.625 g/ha [4] [%] | pest or weed control at 62.5 g/ha [4] [%] | pest or weed control at 250 g/ha [4] [%] | pest or weed control at 15.625 g/ha [5] [%] | pest or weed control at 62.5 g/ha [5] [%] | pest or weed control at 250 g/ha [5] [%] | pest or weed control at 15.625 g/ha [6] [%] | pest or weed control at 62.5 g/ha [6] [%] | pest or weed control at 250 g/ha [6] [%] | pest or weed control at 15.625 g/ha [7] [%] | pest or weed control at 62.5 g/ha [7] [%] | also measured
CN1C[C@@H](c2ccc(C(F)(F)F)cc2)[C@H](C(=O)Nc2ccc(F)nc2F)C1=O (racemic) [Compound 1650] | 20 | 10 | 20 | 70 | 80 | 80 | 10 | 50 | 70 | 10 | 70 | 80 | 0 | 20 | 40 | 40 | 80 | 80 | 0 | 0 | pest or weed control at 250 g/ha [7]: 0%; pest or weed control at 15.625 g/ha [8]: 40%; pest or weed control at 62.5 g/ha [8]: 90%; pest or weed control at 250 g/ha [8]: 90%; plant injury at 15.625 g/ha (corn (Zea mays) [9]): 0%; plant injury at 62.5 g/ha (corn (Zea mays) [9]): 0%; plant injury at 250 g/ha (corn (Zea mays) [9]): 80%; pest or weed control at 15.625 g/ha [10]: 0%; pest or weed control at 62.5 g/ha [10]: 70%; pest or weed control at 250 g/ha [10]: 80%; pest or weed control at 15.625 g/ha [11]: 0%; pest or weed control at 62.5 g/ha [11]: 0%; pest or weed control at 250 g/ha [11]: 50%; pest or weed control at 15.625 g/ha [12]: 10%; pest or weed control at 62.5 g/ha [12]: 70%; pest or weed control at 250 g/ha [12]: 90%
CN1C[C@@H](c2ccc(C(F)(F)F)cc2)[C@H](C(=O)Nc2ccncc2F)C1=O (racemic) [Compound 1652] | 0 | 0 | 0 | 0 | 20 | 40 | 0 | 0 | 0 | 0 | 0 | 0 | 0 | 0 | 0 | 0 | 20 | 30 | 0 | 0 | pest or weed control at 250 g/ha [7]: 0%; pest or weed control at 15.625 g/ha [8]: 0%; pest or weed control at 62.5 g/ha [8]: 10%; pest or weed control at 250 g/ha [8]: 30%; plant injury at 15.625 g/ha (corn (Zea mays) [9]): 0%; plant injury at 62.5 g/ha (corn (Zea mays) [9]): 0%; plant injury at 250 g/ha (corn (Zea mays) [9]): 10%; pest or weed control at 15.625 g/ha [10]: 0%; pest or weed control at 62.5 g/ha [10]: 0%; pest or weed control at 250 g/ha [10]: 0%; pest or weed control at 15.625 g/ha [11]: 0%; pest or weed control at 62.5 g/ha [11]: 0%; pest or weed control at 250 g/ha [11]: 0%; pest or weed control at 15.625 g/ha [12]: 0%; pest or weed control at 62.5 g/ha [12]: 0%; pest or weed control at 250 g/ha [12]: 0%
